pKi: −log10 of the molar value.
Key:
[1] = biological target: T1, COX2(h) (Homo sapiens, UniProt P35354); assay: biochemical; set-up: Eurofins SafetyScreen44 enzyme assays, inhibition of control specific activity; conditions: read-out: % Inhibition of Control Values, Mean
T1 construct: gene PTGS2

[2] = biological target: T2, 5-HT1A(h) (Homo sapiens, UniProt P08908); assay: biochemical; set-up: Eurofins SafetyScreen44 radioligand displacement, inhibition of control specific binding; conditions: read-out: % Inhibition of Control Specific Binding, Mean
T2 construct: gene HTR1A
T2 sequence (P08908 whole entry): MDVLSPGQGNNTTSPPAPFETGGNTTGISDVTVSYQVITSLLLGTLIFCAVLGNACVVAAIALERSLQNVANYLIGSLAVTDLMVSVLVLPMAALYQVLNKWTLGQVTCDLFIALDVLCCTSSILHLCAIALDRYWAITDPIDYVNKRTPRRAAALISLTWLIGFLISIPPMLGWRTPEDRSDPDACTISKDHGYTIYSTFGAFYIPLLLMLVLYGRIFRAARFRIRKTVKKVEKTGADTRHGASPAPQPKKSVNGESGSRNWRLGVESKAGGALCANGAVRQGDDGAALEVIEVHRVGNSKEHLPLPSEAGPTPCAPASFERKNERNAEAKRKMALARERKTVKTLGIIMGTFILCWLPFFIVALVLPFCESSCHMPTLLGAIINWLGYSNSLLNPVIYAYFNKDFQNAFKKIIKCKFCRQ

[3] = biological target: T3, 5-HT5a(h) (Homo sapiens, UniProt P47898); assay: biochemical; set-up: Eurofins SafetyScreen44 radioligand displacement, inhibition of control specific binding; conditions: read-out: % Inhibition of Control Specific Binding, Mean
T3 construct: gene HTR5A
T3 sequence (P47898 whole entry): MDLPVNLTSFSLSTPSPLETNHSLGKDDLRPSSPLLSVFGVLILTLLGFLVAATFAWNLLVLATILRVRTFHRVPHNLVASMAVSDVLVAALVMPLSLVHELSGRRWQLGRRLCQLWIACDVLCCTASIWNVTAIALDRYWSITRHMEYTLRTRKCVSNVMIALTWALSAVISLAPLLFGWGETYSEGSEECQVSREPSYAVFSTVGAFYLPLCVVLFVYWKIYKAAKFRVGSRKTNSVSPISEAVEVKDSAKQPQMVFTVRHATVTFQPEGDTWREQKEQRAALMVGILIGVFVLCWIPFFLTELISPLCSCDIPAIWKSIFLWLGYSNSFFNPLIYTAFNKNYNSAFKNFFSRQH

[4] = biological target: T4, dopamine transporter(h) (Homo sapiens, UniProt Q01959); assay: biochemical; set-up: Eurofins SafetyScreen44 radioligand displacement, inhibition of control specific binding; conditions: read-out: % Inhibition of Control Specific Binding, Mean
T4 construct: gene SLC6A3
T4 sequence (Q01959 whole entry): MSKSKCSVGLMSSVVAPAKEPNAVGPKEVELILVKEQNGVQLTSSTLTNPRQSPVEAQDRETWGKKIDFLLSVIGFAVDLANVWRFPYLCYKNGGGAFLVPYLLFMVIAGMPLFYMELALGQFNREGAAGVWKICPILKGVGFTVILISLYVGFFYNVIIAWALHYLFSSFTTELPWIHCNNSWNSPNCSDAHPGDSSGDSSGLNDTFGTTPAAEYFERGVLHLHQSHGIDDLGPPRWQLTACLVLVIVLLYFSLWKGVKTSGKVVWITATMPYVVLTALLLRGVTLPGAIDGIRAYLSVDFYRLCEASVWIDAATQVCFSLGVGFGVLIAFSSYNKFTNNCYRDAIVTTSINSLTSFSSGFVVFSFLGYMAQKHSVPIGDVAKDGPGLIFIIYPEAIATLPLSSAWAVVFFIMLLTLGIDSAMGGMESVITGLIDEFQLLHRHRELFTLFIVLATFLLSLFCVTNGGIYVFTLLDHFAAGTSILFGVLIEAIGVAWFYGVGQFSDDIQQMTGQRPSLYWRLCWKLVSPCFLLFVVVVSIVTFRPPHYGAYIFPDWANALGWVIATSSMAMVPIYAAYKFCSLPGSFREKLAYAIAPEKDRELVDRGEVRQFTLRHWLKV

[5] = biological target: T5, β2(h) (Homo sapiens, UniProt P07550); assay: biochemical; set-up: Eurofins SafetyScreen44 radioligand displacement, inhibition of control specific binding; conditions: read-out: % Inhibition of Control Specific Binding, Mean
T5 construct: gene ADRB2
T5 sequence (P07550 whole entry): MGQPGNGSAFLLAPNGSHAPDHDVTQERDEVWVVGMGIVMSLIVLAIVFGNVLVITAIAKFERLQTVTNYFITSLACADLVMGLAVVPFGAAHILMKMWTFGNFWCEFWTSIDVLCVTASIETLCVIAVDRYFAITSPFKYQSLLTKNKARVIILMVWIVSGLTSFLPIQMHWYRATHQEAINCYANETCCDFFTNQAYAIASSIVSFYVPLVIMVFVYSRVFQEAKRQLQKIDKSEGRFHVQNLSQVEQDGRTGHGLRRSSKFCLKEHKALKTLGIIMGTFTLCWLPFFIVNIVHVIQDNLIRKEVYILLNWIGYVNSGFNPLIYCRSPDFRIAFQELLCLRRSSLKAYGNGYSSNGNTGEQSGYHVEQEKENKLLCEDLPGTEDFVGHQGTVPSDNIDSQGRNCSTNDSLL

[6] = biological target: T6, 5-HT2B(h) (Homo sapiens, UniProt P41595); assay: biochemical; set-up: Eurofins SafetyScreen44 radioligand displacement, inhibition of control specific binding; conditions: read-out: % Inhibition of Control Specific Binding, Mean
T6 construct: gene HTR2B

[7] = biological target: T7, β1(h) (Homo sapiens, UniProt P08588); assay: biochemical; set-up: Eurofins SafetyScreen44 radioligand displacement, inhibition of control specific binding; conditions: read-out: % Inhibition of Control Specific Binding, Mean
T7 construct: gene ADRB1
T7 sequence (P08588 whole entry): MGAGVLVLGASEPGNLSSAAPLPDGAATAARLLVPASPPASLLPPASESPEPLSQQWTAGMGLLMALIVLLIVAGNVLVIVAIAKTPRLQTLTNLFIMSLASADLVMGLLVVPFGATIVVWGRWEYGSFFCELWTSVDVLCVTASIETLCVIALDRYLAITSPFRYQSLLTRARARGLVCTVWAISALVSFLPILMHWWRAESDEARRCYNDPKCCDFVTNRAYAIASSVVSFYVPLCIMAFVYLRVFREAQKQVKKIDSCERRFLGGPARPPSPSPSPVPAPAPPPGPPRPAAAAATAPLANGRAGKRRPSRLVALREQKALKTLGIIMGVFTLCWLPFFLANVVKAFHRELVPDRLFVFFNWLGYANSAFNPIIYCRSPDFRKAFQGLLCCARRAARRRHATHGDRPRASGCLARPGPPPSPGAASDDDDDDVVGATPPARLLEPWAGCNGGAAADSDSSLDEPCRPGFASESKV

[8] = biological target: T8, D5(h) (Homo sapiens, UniProt P21918); assay: biochemical; set-up: Eurofins SafetyScreen44 radioligand displacement, inhibition of control specific binding; conditions: read-out: % Inhibition of Control Specific Binding, Mean
T8 construct: gene DRD5

[9] = biological target: T9, M2 (h) (Homo sapiens, UniProt P08172); assay: biochemical; set-up: Eurofins SafetyScreen44 radioligand displacement, inhibition of control specific binding; conditions: read-out: % Inhibition of Control Specific Binding, Mean
T9 construct: gene CHRM2

[10] = biological target: T10, 5-HT3(h) (Homo sapiens, UniProt P46098); assay: biochemical; set-up: Eurofins SafetyScreen44 radioligand displacement, inhibition of control specific binding; conditions: read-out: % Inhibition of Control Specific Binding, Mean
T10 construct: gene HTR3A

[11] = biological target: T11, M5(h) (Homo sapiens, UniProt P08912); assay: biochemical; set-up: Eurofins SafetyScreen44 radioligand displacement, inhibition of control specific binding; conditions: read-out: % Inhibition of Control Specific Binding, Mean
T11 construct: gene CHRM5
T11 sequence (P08912 whole entry): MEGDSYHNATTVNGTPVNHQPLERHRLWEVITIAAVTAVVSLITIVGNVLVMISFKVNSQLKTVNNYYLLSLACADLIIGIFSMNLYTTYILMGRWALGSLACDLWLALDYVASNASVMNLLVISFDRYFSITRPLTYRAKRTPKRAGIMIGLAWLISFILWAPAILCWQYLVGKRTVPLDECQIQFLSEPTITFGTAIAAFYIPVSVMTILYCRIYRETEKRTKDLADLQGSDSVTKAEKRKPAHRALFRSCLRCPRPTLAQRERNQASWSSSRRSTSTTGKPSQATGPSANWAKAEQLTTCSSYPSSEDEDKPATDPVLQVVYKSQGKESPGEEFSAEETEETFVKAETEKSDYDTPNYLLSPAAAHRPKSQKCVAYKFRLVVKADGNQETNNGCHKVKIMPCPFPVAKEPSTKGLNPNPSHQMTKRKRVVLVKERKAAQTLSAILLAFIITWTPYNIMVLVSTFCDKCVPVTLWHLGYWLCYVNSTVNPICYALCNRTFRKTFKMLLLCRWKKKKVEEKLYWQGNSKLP

[12] = biological target: T12, PDE4D2 (h) (Homo sapiens, UniProt Q08499); assay: biochemical; set-up: Eurofins SafetyScreen44 enzyme assays, inhibition of control specific activity; conditions: read-out: % Inhibition of Control Values, Mean
T12 construct: gene PDE4D; isoform PDE4D2
T12 sequence (Q08499 whole entry, canonical isoform): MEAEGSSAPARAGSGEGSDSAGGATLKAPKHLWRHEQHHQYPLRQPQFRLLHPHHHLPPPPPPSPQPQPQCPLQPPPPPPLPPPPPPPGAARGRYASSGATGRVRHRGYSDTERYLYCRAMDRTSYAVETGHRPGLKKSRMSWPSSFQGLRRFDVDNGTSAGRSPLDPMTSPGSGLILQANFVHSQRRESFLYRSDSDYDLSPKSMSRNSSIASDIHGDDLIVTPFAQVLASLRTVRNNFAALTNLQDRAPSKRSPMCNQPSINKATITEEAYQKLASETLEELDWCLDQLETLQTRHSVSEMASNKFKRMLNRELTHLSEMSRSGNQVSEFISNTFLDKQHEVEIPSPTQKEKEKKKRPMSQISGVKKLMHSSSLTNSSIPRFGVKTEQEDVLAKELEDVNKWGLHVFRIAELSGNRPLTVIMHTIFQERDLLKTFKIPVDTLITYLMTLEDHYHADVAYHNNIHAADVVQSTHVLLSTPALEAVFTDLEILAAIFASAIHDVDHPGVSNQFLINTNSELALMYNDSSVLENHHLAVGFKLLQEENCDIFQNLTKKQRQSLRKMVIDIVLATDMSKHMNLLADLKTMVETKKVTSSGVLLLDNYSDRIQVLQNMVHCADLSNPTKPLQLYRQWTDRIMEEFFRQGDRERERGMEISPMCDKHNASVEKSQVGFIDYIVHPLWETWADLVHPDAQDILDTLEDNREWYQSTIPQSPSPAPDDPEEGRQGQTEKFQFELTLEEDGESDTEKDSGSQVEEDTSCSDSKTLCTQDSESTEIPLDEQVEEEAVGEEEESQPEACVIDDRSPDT

[13] = biological target: T13, CB1(h) (Homo sapiens, UniProt P21554); assay: biochemical; set-up: Eurofins SafetyScreen44 radioligand displacement, inhibition of control specific binding; conditions: read-out: % Inhibition of Control Specific Binding, Mean
T13 construct: gene CNR1

[14] = biological target: T14, adrenergic receptor α2A (Homo sapiens, UniProt P08913); assay: SafetyScreen44 panel (Eurofins), single concentration […]; conditions: read-out: % inhibition at 10 μM
T14 construct: gene ADRA2A

[15] = biological target: T15, 5-HT1B (antagonist radioligand) (Rattus norvegicus, UniProt P28564); assay: biochemical; conditions: read-out: % Inhibition of Control Specific Binding Mean
T15 construct: gene Htr1b

[16] = biological target: AR(h) (agonist radioligand) (Homo sapiens, UniProt P10275); assay: biochemical; conditions: read-out: % Inhibition of Control Specific Binding Mean
AR(h) (agonist radioligand), sequence (P10275 whole entry): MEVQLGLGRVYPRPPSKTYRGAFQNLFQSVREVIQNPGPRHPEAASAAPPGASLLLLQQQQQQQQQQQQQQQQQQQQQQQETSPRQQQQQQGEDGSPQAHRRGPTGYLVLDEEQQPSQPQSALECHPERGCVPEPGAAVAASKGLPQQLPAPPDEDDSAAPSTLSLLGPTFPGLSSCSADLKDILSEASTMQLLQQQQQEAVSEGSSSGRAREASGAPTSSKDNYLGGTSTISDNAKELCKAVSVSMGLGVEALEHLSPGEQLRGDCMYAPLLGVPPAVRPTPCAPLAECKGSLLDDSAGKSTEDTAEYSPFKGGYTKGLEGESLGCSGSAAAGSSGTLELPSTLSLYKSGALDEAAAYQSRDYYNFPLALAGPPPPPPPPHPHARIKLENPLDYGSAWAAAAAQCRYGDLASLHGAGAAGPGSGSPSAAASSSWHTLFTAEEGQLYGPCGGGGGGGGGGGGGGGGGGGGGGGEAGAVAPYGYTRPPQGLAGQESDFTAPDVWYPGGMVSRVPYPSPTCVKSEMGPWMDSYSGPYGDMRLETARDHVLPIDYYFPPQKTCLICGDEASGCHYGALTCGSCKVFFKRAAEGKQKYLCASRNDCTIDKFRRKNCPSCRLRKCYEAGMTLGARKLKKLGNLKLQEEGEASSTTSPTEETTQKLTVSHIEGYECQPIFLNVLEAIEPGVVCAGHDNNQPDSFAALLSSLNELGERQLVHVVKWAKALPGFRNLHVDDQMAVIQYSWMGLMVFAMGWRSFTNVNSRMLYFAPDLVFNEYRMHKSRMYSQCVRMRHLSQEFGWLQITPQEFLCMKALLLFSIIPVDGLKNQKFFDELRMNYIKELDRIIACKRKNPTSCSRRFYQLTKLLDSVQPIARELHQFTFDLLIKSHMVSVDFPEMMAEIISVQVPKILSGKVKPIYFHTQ

[17] = biological target: T16, 5-HT1D (agonist radioligand) (Rattus norvegicus, UniProt P28565); assay: biochemical; conditions: read-out: % Inhibition of Control Specific Binding Mean
T16 construct: gene Htr1d

[18] = biological target: T17, MAO-A (antagonist radioligand) (Rattus norvegicus, UniProt P21396); assay: biochemical; conditions: read-out: % Inhibition of Control Specific Binding Mean
T17 construct: gene Maoa

[19] = biological target: Lck kinase (h) (Homo sapiens, UniProt P06239); assay: biochemical; set-up: Eurofins SafetyScreen44 enzyme assays, inhibition of control specific activity; conditions: read-out: % Inhibition of Control Values, Mean
[20] = biological target: PDE3A (h) (Homo sapiens, UniProt Q14432); assay: biochemical; set-up: Eurofins SafetyScreen44 enzyme assays, inhibition of control specific activity; conditions: read-out: % Inhibition of Control Values, Mean
[21] = biological target: T18, adrenergic receptor α1A (Homo sapiens, UniProt P35348); assay: SafetyScreen44 panel (Eurofins), single concentration […]; conditions: read-out: % inhibition at 10 μM
T18 construct: gene ADRA1A
T18 sequence (P35348 1-466): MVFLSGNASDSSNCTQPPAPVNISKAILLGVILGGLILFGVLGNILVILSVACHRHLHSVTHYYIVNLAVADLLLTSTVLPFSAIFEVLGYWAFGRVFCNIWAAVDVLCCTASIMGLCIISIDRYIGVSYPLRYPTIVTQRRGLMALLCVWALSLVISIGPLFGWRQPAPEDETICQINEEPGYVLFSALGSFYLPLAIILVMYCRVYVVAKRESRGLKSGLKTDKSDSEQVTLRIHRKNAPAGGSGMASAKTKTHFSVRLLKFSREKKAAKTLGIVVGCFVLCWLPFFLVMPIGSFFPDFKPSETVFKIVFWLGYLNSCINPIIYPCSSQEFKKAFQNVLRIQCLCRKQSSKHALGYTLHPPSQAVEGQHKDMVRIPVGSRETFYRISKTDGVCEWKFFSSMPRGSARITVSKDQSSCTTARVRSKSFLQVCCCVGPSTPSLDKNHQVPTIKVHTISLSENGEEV

[22] = biological target: T19, H2(h) (Homo sapiens, UniProt P25021); assay: biochemical; set-up: Eurofins SafetyScreen44 radioligand displacement, inhibition of control specific binding; conditions: read-out: % Inhibition of Control Specific Binding, Mean
T19 construct: gene HRH2
T19 sequence (P25021 whole entry): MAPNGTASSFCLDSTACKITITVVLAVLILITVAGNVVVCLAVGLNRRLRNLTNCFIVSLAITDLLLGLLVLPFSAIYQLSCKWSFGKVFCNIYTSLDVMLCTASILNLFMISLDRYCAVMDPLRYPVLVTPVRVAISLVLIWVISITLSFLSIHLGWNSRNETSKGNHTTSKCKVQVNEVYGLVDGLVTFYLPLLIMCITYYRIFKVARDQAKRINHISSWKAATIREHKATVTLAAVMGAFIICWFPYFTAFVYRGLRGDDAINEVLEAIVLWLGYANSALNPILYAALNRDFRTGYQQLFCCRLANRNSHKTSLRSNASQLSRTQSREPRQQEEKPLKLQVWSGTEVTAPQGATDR

[23] = biological target: T20, δ (DOP) (h) (Homo sapiens, UniProt P41143); assay: biochemical; set-up: Eurofins SafetyScreen44 radioligand displacement, inhibition of control specific binding; conditions: read-out: % Inhibition of Control Specific Binding, Mean
T20 construct: gene OPRD1

[24] = biological target: T21, µ-opioid receptor (Rattus norvegicus, UniProt P33535); assay: [3H]DAMGO radioligand displacement in rat cortex homogenates; type: binding
T21 construct: gene Oprm1; rat cortex homogenates

COCCN(CC1CCCN(Cc2ccccc2)C1)S(=O)(=O)c1ccc2ccccc2c1 (racemic) [compound 4, (±)N-((1-benzylpiperidin-3-yl)methyl)-N-(2-methoxyethyl)naphthalene-2-sulfonamide]
inhibition at 10 µM [1]: 2.2% | inhibition at 10 µM [2]: 96.2% | inhibition at 10 µM [3]: 42.5% | inhibition at 10 µM [4]: 26% | inhibition at 10 µM [5]: 10.5% | inhibition at 10 µM [6]: 88.4% | inhibition at 10 µM [7]: 4.5% | inhibition at 10 µM [8]: 24.2% | inhibition at 10 µM [9]: 85.7% | inhibition at 10 µM [10]: -2.7% | inhibition at 10 µM [11]: 17.6% | inhibition at 10 µM [12]: -3.7% | inhibition at 10 µM [13]: -44.4% | inhibition at 10 µM [14]: 60.9% | inhibition at 10 µM [15]: -12.8% | inhibition at 10 µM [16]: -6.6% | inhibition at 10 µM [17]: 33% | inhibition at 10 µM [18]: -0.2% | inhibition at 10 µM [19]: 52.7% | inhibition at 10 µM [20]: 7% | inhibition at 10 µM [21]: 71.7% | inhibition at 10 µM [22]: 27% | inhibition at 10 µM [23]: 32.8% | pKi [24]: 5.74
